Where “and” joins values, the source holds several entries; their conditions need not be identical. Equal entries are not always repeated.

The results in this text go back to US8946197B2, “Transglutaminase TG2 inhibitors, pharmaceutical compositions, and methods of use thereof” (CHDI Foundation, Inc., priority 2009, dated 2015).

The target in this assay is T1, human TG2 (Homo sapiens, UniProt P21980).
T1 sequence (P21980 1-687): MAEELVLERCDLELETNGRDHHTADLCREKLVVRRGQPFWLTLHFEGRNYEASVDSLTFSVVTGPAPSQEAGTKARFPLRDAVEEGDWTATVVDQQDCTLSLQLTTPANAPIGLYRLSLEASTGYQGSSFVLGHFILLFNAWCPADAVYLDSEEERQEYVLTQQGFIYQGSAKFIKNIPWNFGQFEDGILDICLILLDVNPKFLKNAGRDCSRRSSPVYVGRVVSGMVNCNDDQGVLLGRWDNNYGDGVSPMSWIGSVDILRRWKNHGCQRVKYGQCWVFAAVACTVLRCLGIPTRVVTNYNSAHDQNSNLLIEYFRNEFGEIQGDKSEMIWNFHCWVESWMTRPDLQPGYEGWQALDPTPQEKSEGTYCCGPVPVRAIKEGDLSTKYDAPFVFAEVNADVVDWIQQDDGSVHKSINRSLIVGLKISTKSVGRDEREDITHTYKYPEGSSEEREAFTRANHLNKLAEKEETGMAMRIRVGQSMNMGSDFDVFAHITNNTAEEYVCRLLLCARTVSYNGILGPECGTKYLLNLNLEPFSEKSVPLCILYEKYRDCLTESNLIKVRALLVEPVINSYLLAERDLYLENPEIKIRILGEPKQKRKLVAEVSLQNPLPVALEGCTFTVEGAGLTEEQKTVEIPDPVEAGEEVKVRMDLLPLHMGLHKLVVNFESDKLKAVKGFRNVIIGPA
The experiment in a line: fluorescent screening assay for human TG2. In kind it is biochemical. The conditions noted are these: 20 nM TG2, 8 μM N,N-dimethylated Casein, 16 μM KxD, pH 7.4, 37° C. The method, then:
(§1) The fluorescent screening assay for human TG2 was performed as described herein: Assay conditions were 20 nM TG2, 8 μM N,N-dimethylated Casein (NMC) and 16 μM K×D (used for all transglutaminase assays) in 25 mM Hepes, pH 7.4, 250 mM NaCl, 2 mM MgCl2, 0.5 mM CaCl2, 0.2 mM DTT, 0.05% Pluronic F-127 at 37° C. A time point was taken with a microplate reader (Safire or Ultra, Tecan; ex: 350 nm, em: 535 nm) every 3 minutes for up to 2 hours and the initial linear reaction progress was used to determine the reaction velocity as a measure for enzyme activity. Assay conditions were identical for human TG6 and similar for human TG1 and mouse TG2 apart from enzyme concentration (mTG2 at 5 nM; TG1 at 10 nM) and CaCl2 concentration (0.2 mM for mTG2; 0.05 mM for TG1). Factor XIIIa was activated using 0.1 μg/μl thrombin (Sigma) in 35 mM Tris pH 8.0 for 20 min at 30° C. and the transamidation reaction was performed with 20 nM Factor XIIIa in 50 mM Tris pH 8.0, 1.25 mM CaCl2, 0.05% Pluronic, 0.2 mM DTT. TG3 was activated with 0.02 μg/μl thrombin under the same conditions as Factor XIIIa and assay conditions were 10 nM TG3 in 50 mM Hepes, pH 8, 20 mM CaCl2, 0.2 mM DTT, 0.05% Pluronic F-127.
as §1, with “A” for “The”
Broadly, the IC50 is the concentration needed to halve the response being measured. Higher therefore signals weaker potency in that assay. In the case of `C=CC(=O)Nc1ccc(S(=O)(=O)N2CCN(c3cccc(C)n3)CC2)cc1` [N-{4-[4-(6-Methyl-pyridin-2-yl)-piperazine-1-sulfonyl]-phenyl}-acrylamide], the IC50 was 0.1 to 1 µM and < 0.1 µM.

On to `C=CC(=O)Nc1ccc(S(=O)(=O)N2CCN(C(=O)OCc3ccccc3)[C@@H](C)C2)cc1` [4-(4-Acryloylamino-benzenesulfonyl)-2-methyl-piperazine-1-carboxylic acid benzyl ester], for which the IC50 is 0.1 to 1 µM and < 0.1 µM.

Compound `C=CC(=O)Nc1ccc(S(=O)(=O)N2CCNCC2)c(C)c1` [N-[3-Methyl-4-(piperazine-1-sulfonyl)-phenyl]-acrylamide] showed an IC50 of 1 to 25 µM.

Take `C=CC(=O)Nc1ccc(S(=O)(=O)N2CCN(C(=O)OCc3ccc(F)cc3)CC2)cc1` [4-(4-Acryloylamino-benzenesulfonyl)-piperazine-1-carboxylic acid 4-fluoro-benzyl ester]: the IC50 was < 0.1 µM and 0.1 to 1 µM. Then `C=CC(=O)Nc1ccc(S(=O)(=O)N2CCN(c3ncnc4ccsc34)CC2)cc1` [N-[4-(4-Thieno[3,2-d]pyrimidin-4-yl-piperazine-1-sulfonyl)-phenyl]-acrylamide], with < 0.1 µM and 0.1 to 1 µM. As for `C=CC(=O)Nc1ccc(S(=O)(=O)N2CCN(C(=O)OCc3cccc(OC)c3OC)CC2)cc1` [4-(4-Acryloylamino-benzenesulfonyl)-piperazine-1-carboxylic acid 2,3-dimethoxy-benzyl ester], the IC50 was 0.1 to 1 µM and < 0.1 µM.

Consider `C=CC(=O)Nc1ccc(S(=O)(=O)N2CCN(C(=O)OCc3ccc(C)cc3)CC2)cc1` [4-(4-Acryloylamino-benzenesulfonyl)-piperazine-1-carboxylic acid 4-methyl-benzyl ester], for which the IC50 was 0.1 to 1 µM and < 0.1 µM. Then `C=CC(=O)Nc1ccc(S(=O)(=O)N2CCN(C(=O)OCc3cccc(F)c3F)CC2)cc1` [4-(4-Acryloylamino-benzenesulfonyl)-piperazine-1-carboxylic acid 2,3-difluoro-benzyl ester], with 0.1 to 1 µM and < 0.1 µM.

`C=CC(=O)Nc1ccc(S(=O)(=O)N2CCN(C(=O)N3CCCC4CCCCC43)CC2)cc1` (stereo not drawn) [N-{4-[4-(Octahydro-quinoline-1-carbonyl)-piperazine-1-sulfonyl]-phenyl}-acrylamide]: the IC50 was 0.1 to 1 µM and < 0.1 µM. Then `C=CC(=O)Nc1ccc(S(=O)(=O)N2CCN(C(=O)Oc3ccccc3)CC2)cc1` [4-(4-Acryloylamino-benzenesulfonyl)-piperazine-1-carboxylic acid phenyl ester], with 0.1 to 1 µM and < 0.1 µM; and `C=CC(=O)Nc1ccc(S(=O)(=O)N2CCN(c3nccc4occc34)CC2)cc1` [N-[4-(4-Furo[3,2-c]pyridin-4-yl-piperazine-1-sulfonyl)-phenyl]-acrylamide], with < 0.1 µM and 0.1 to 1 µM; and `C/C=C/C(=O)Nc1ccc(S(=O)(=O)N2CCN(C(=O)OC(C)(C)C)CC2)cc1` [(E)-tert-butyl 4-(4-but-2-enamidophenylsulfonyl)piperazine-1-carboxylate], with 1 to 25 µM. For `C=CC(=O)Nc1ccc(S(=O)(=O)N2CCN(C(=O)OC3CCCC3)CC2)cc1` [4-(4-Acryloylamino-benzenesulfonyl)-piperazine-1-carboxylic acid cyclopentyl ester], the IC50 is 0.1 to 1 µM and < 0.1 µM. As for `C=CC(=O)Nc1ccc(S(=O)(=O)N2CCN(c3ccc(Cl)cn3)CC2)cc1` [N-{4-[4-(5-Chloro-pyridin-2-yl)-piperazine-1-sulfonyl]-phenyl}-acrylamide], the IC50 is < 0.1 µM and 0.1 to 1 µM. Then `C=CC(=O)Nc1ccc(S(=O)(=O)N2CCN(C(=O)OCc3c(F)cccc3F)CC2)cc1` [4-(4-Acryloylamino-benzenesulfonyl)-piperazine-1-carboxylic acid 2,6-difluoro-benzyl ester], with 0.1 to 1 µM and < 0.1 µM; and `C=CC(=O)Nc1cccc(S(=O)(=O)N2CCNCC2)c1` [N-[3-(piperazine-1-sulfonyl)-phenyl]-acrylamide], with 1 to 25 µM; and `CC(C)(C)OC(=O)N1CCN(S(=O)(=O)c2ccc(NC(=O)/C=C/Cl)cc2)CC1` [(E)-tert-butyl 4-(4-(3-chloroacrylamido)phenylsulfonyl)piperazine-1-carboxylate], with 1 to 25 µM. Then `C=CC(=O)Nc1cccc(S(=O)(=O)N2CCN(CCCCc3ccccc3)CC2)c1` [N-{3-[4-(4-Phenyl-butyl)-piperazine-1-sulfonyl]-phenyl}-acrylamide], with 1 to 25 µM.

As to `C=CC(=O)Nc1ccc(S(=O)(=O)N2CCN(c3nccs3)CC2)cc1` [N-[4-(4-Thiazol-2-yl-piperazine-1-sulfonyl)-phenyl]-acrylamide], the IC50 was 0.1 to 1 µM and < 0.1 µM. The same measure for `C=CC(=O)Nc1ccc(S(=O)(=O)N2CCN(C(=O)OC(C)(C)C)CC2)c(C)c1` [4-(4-Acryloylamino-2-methyl-benzenesulfonyl)-piperazine-1-carboxylic acid tert-butyl ester]: 1 to 25 µM; for `C=CC(=O)Nc1ccc(S(=O)(=O)N2CCN(c3nccc(OC)n3)CC2)cc1` [N-{4-[4-(4-Methoxy-pyrimidin-2-yl)-piperazine-1-sulfonyl]-phenyl}-acrylamide]: < 0.1 µM and 0.1 to 1 µM; for `C=CC(=O)Nc1ccc(S(=O)(=O)N2CCN(C(=O)N3CCC(F)(F)CC3)CC2)cc1` [N-{4-[4-(4,4-Difluoro-piperidine-1-carbonyl)-piperazine-1-sulfonyl]-phenyl}-acrylamide]: 0.1 to 1 µM and < 0.1 µM. The same measure for `C=CC(=O)Nc1ccc(S(=O)(=O)N2CCCC2c2ccc(C(F)(F)F)cc2)cc1` (stereo not drawn) [N-{4-[2-(4-Trifluoromethyl-phenyl)-pyrrolidine-1-sulfonyl]-phenyl}-acrylamide]: 1 to 25 µM. The same measure for `C=CC(=O)N(C)c1ccc(S(=O)(=O)N2CCN(C(=O)OC(C)(C)C)CC2)cc1` [4-[4-(Acryloyl-methyl-amino)-benzenesulfonyl]-piperazine-1-carboxylic acid tert-butyl ester]: 1 to 25 µM; for `C=CC(=O)Nc1ccc(S(=O)(=O)N2CCN(c3ncccc3C)CC2)cc1` [N-{4-[4-(3-Methyl-pyridin-2-yl)-piperazine-1-sulfonyl]-phenyl}-acrylamide]: 0.1 to 1 µM and < 0.1 µM.

As to `C=CC(=O)Nc1ccc(S(=O)(=O)N2CCN(C(=O)OCC(C)C)CC2)cc1` [4-(4-Acryloylamino-benzenesulfonyl)-piperazine-1-carboxylic acid isobutyl ester], the IC50 was 0.1 to 1 µM and < 0.1 µM. The same measure for `C=CC(=O)Nc1ccc(S(=O)(=O)NC(C)C(=O)N2CCCCC2)cc1` (stereo not drawn) [N-[4-(1-Methyl-2-oxo-2-piperidin-1-yl-ethylsulfamoyl)-phenyl]-acrylamide]: 1 to 25 µM; for `C=CC(=O)Nc1ccc(S(=O)(=O)N(C)CCN(C)C(=O)OCc2ccccc2)cc1` [{2-[(4-Acryloylamino-benzenesulfonyl)-methyl-amino]-ethyl}-methyk-carbamic acid benzyl ester]: 1 to 25 µM; for `C=CC(=O)Nc1cccc(S(=O)(=O)N2CCN(Cc3ccccc3)CC2)c1` [N-[3-(4-Benzyl-piperazine-1-sulfonyl)-phenyl]-acrylamide]: 1 to 25 µM.

In turn, `C=CC(=O)Nc1ccc(S(=O)(=O)N2CCNC(c3ccc(C)o3)C2)cc1` (stereo not drawn) [N-{4-[3-(5-Methyl-furan-2-yl)-piperazine-1-sulfonyl]-phenyl}-acrylamide] gave an IC50 of 1 to 25 µM.
